{"source": "patent US20240277684A1", "about": "“BLOCKADE OF CHEMOKINE (C-C MOTIF) RECEPTOR 2 DURING FLUID RESUSCITATION” (University of South Florida, priority 2022, published 2024)", "key": {"hemorrhagic shock [1]": {"test_system": "hemorrhagic shock", "experiment": "Example 1 second series: 30 min hemorrhagic shock, fluid resuscitation until t=300 min", "type": "in vivo, rat", "method": "In vivo animal experiments. All procedures were performed in accordance with the National Institutes of Health Guidelines for Use of Laboratory Animals and were approved by the University of South Florida Institutional Animal Care and Use Committeee (IS00008139). Male Sprague-Dawley rats (300-400 g, Envigo, Indianapolis, IN, USA). were anesthetized with 1.7% isoflurane via nose-cone inhalation with the SomnoSuite anesthesia system (Kent Scientific, Torrington, CT, USA). […] The left femoral artery was isolated and cannulated with a 24-gauge peripheral intravenous catheter to allow for blood withdrawal, hemodynamic monitoring, drug administration, and fluid resuscitation. Hemodynamics were continuously monitored with the SurgivetV6400 blood pressure monitor (Med-Electronics, Beltsville, MD, USA), and blood pressures and heart rate were recorded at 1-10 min intervals. All animals were observed over a 10 min period to ensure hemodynamic stability before start of the experiments. All experiments were performed randomized in alternating order.\nTo test the effects of INCB3284 and Maraviroc after HS, a Wiggers fixed pressure hemorrhage and fluid resuscitation model was used as described (Babu F S, et al., Chemokine (C-X-C motif) receptor 4 regulates lung endothelial barrier permeability during resuscitation from hemorrhagic shock. Physiol Res 2019; 68(4):675-679; Nassoiy S P, et al., Effects of the Kv7 voltage-activated potassium channel inhibitor linopirdine in rat models of haemorrhagic shock. Clin Exp Pharmacol Physiol 2018; Nassoiy S P, et al., Kv7 voltage-activated potassium channel inhibitors reduce fluid resuscitation requirements after hemorrhagic shock in rats. J Biomed Sci 2017; 24(1):8; Bach H Ht, et al., Proteasome inhibition prolongs survival during lethal hemorrhagic shock in rats. J Trauma Acute Care Surg 2013; 74(2):499-507; Bach H Ht, et al., Chemokine (C-X-C motif) receptor 4 and atypical chemokine receptor 3 regulate vascular alpha(1)-adrenergic receptor function. Mol Med 2014; 20:435-447), with slight modifications. In brief, rats were hemorrhaged to a mean arterial blood pressure (MAP) of less than or equal to 30 mmHg for a period of 30 minutes. At the end of the HS period (t=30 min), animals were injected with either vehicle (1 mL LR) or drug in 1 mL LR, followed by fluid resuscitation with 1 mL bolus injections of LR to maintain a systolic blood pressure (SBP) of 90 mmHg or a MAP of 60 mmHg. To avoid fluid overload, bolus injections of LR were limited to 1 mL/min. In the first series of experiments, animals received 1 mL of LR (n=9), 1.1 μmol/kg (n=4) or 5.5 μmol/kg (n=5) INCB3284 in 1 mL LR or […] Maraviroc (n=3) in 1 mL LR at t=30 min. Animals were then resuscitated until t=90 min. At t=0, 15, 30, 60 and 90 min, blood samples were obtained, and plasma prepared. Samples were stored at −70° C. until further processing. At t=90 min, animals were euthanized (isoflurane inhalation, bilateral pneumothorax).\nIn the second series of experiments, animals received 1 mL of LR (n=10) or 5 μmol/kg INCB3284 in 1 mL LR (n=8) at t=30 min. Animals were resuscitated until t=300 min. Blood samples were obtained for arterial blood gas analyses and measurements of routine laboratory parameters at time points t=0, 30, 90, 150, 210, 270 and 300 min. Death was defined as asystole or loss of a pulse pressure. At the end of the experiments, surviving animals were euthanized as described before. In animals that survived until t=300 min, a gross necropsy was performed after euthanasia, and tissue from lung, small intestine, and colon was collected for measurements of wet-weight/dry-weight ratios.\n(§1) Arterial blood gases and routine laboratory parameters. Arterial blood gases, electrolytes, creatinine, lactate, hematocrit and hemoglobin were analyzed using the Element point of care veterinary blood gas, electrolyte and critical care analyzer (Cuattro Veterinary USA, Loveland, CO, USA).\nWet-weight/dry-weight ratios."}, "hemorrhagic shock [2]": {"test_system": "hemorrhagic shock", "experiment": "Example 2 Series 3: 60 min hemorrhagic shock, redosing, fluid resuscitation until t=300 min", "type": "in vivo, rat", "details": "5 μmol/kg at t=60 min and t=200 min", "method": "The hemorrhagic shock models were performed as described previously, with slight modifications (DeSantis A J, et al., The Chemokine (C-C Motif) Receptor 2 Antagonist INCB3284 Reduces Fluid Requirements and Protects From Hemodynamic Decompensation During Resuscitation From Hemorrhagic Shock. Crit Care Explor 2022;4(5):e0701; Bach H H, et al., Chemokine (C-X-C motif) receptor 4 and atypical chemokine receptor 3 regulate vascular alpha(1)-adrenergic receptor function. Mol Med 2014; 20:435-47; Nassoiy S P, et al., Effects of the Kv7 voltage activated potassium channel inhibitor linopirdine in rat models of hemorrhagic shock. Clin Exp Pharmacol Physiol 2018. doi: 10.1111/1440-1681.12958. PubMed PMID: 29702725; Bach H H, et al., Proteasome inhibition prolongs survival during lethal hemorrhagic shock in rats. J Trauma Acute Care Surg 2013; 74(2):499-507). In brief, anesthesia induction was performed with the animal and isoflurane-soaked gauze placed in a bell jar. After anesthesia induction, the animals were transferred to the operative field and anesthesia was maintained with 2.7% isoflurane administered via nose-cone inhalation with the SomnoSuite small animal anesthesia system (Kent Scientific Corporation, Torrington, CT, USA). […] Using a direct cut-down technique, the left femoral artery was isolated and cannulated with a 24-gauge peripheral intravenous catheter to allow for blood withdrawal, hemodynamic monitoring, drug administration, and fluid resuscitation. After catheter placement, isoflurane was decreased to 1.5%. Hemodynamics were continuously monitored with the Surgivet invasive blood pressure monitor (Med-Electronics, Beltsville, MD, USA). Blood pressures were recorded at 1-5 min intervals during the hemorrhage and resuscitation periods. Four subsequent series of experiments were performed. All experiments in each series were performed in alternating order. In all experiments animals were continuously monitored and remained under general anesthesia until euthanasia or death, as defined by asystole or loss of pulse pressure.\nSeries 3: Rats were hemorrhaged to a MAP of less than or equal to 30 mmHg for a period of 60 min, followed by fluid resuscitation until t=300 min as in Series 2. At the end of the hemorrhagic shock period (t=60 min) and at t=200 min, animals were injected with 1 mL of NS (n=7) or with 5 μmol/kg INCB3284 in 1 mL NS (n=7). At t=0 min, 60 min, 120 min, 180 min, 240 min and 300 min, blood samples (0.3 ml) were obtained and used for arterial blood gas analyses and measurements of routine laboratory parameters. At t=300 min, surviving animals were euthanized (5% isoflurane inhalation, bilateral pneumothorax).\nas §1"}, "[3]": {"details": "5 μmol/kg, animals that survived until t=300 min"}, "[4]": {"details": "5 μmol/kg, animals that survived until t=300 min, vs vehicle"}}, "data": [{"molecule": "COc1ccc([C@]2(O)CC[C@@H](N3CC[C@@H](NC(=O)CNC(=O)c4cccc(C(F)(F)F)c4)C3)CC2)cn1", "note": "[INCB3284]", "values": [{"measurement": "colon wet weight/dry weight ratios, difference to vehicle", "setting": "hemorrhagic shock [1]; [3]", "result": "did not reach statistical significance"}, {"measurement": "small bowel wet weight/dry weight ratios, difference to vehicle", "setting": "hemorrhagic shock [1]; [3]", "result": "did not reach statistical significance"}, {"measurement": "lung wet weight/dry weight ratios", "setting": "hemorrhagic shock [1]; [4]", "result": "significantly reduced"}, {"measurement": "wet weight/dry weight ratios of all tissues combined", "setting": "hemorrhagic shock [1]; [4]", "result": "significantly reduced"}, {"measurement": "animals demonstrating the beginning of hemodynamic decompensation", "setting": "hemorrhagic shock [1]; 5 μmol/kg, n=8, p<0.01 vs. vehicle", "result": "None"}, {"measurement": "mortality", "setting": "hemorrhagic shock [1]; 5 μmol/kg, until t=300 min, p<0.05", "result": 0, "unit": "%"}, {"measurement": "median survival time", "setting": "hemorrhagic shock [1]; 5 μmol/kg, p<0.05 vs. vehicle", "result": "> 300", "unit": "min"}, {"measurement": "reduction of average fluid requirements", "setting": "hemorrhagic shock [1]; single dose 5 μmol/kg at t=30 min, until t=300 min, vs vehicle", "result": "62±6", "unit": "%"}, {"measurement": "average fluid requirements", "setting": "hemorrhagic shock [1]; single dose 5 μmol/kg at t=30 min, until t=300 min, p<0.05", "result": "61.9 ± 10", "unit": "mL/kg"}, {"measurement": "steep increase in fluid requirements", "setting": "hemorrhagic shock [2]", "result": "prevented"}, {"measurement": "reduction of total fluid requirements", "setting": "hemorrhagic shock [2]; at t=300 min, vs vehicle", "result": 75, "unit": "%"}, {"measurement": "total fluid requirements", "setting": "hemorrhagic shock [2]; at t=300 min, p<0.05 vs. vehicle", "result": "33 ± 16", "unit": "mL/kg"}, {"measurement": "median survival time", "setting": "hemorrhagic shock [2]; p<0.05 vs. vehicle", "result": "undefined"}, {"measurement": "mortality", "setting": "hemorrhagic shock [2]; p<0.05 vs. vehicle", "result": "zero"}]}]}
